From ChEMBL document CHEMBL3044829, “New carbodithioate derivatives: synthesis, characterization, and in vitro antibacterial, antifungal, antitubercular, and antimalarial activity” (Med Chem Res, 2013) come the findings set out here.

One data set concerns Streptococcus pyogenes. Nature of the data set: Antimicrobial activity against Streptococcus pyogenes MTCC 442 assessed as growth inhibition by broth microdilution method. The class given is functional. A general note: Broth dilution looks for growth in wells or tubes with falling amounts of substance.
Another data set has as its system Staphylococcus aureus. As to the kind of experiment: Antimicrobial activity against Staphylococcus aureus MTCC 96 assessed as growth inhibition by broth microdilution method. In kind it is functional.
Another data set deals with Plasmodium falciparum. As to the kind of experiment: Antimalarial activity against chloroquine-sensitive Plasmodium falciparum 3D7 assessed as inhibition of complete maturation into schizonts after 40 hr. In kind it is functional. The note with it: 3D7, 40 h.
The test system of data set [1] is Mycobacterium tuberculosis. Nature of the data set: Antitubercular activity against Mycobacterium tuberculosis H37Rv MTCC 200 assessed as growth inhibition at 6.25 ug/ml by BACTEC MGIT method. The class given is functional.
For another data set, the system named is Pseudomonas aeruginosa. Nature of the data set: Antimicrobial activity against Pseudomonas aeruginosa MTCC 1688 assessed as growth inhibition by broth microdilution method. The class given is functional.
For another data set, the system named is Klebsiella pneumoniae. Nature of the data set: Antimicrobial activity against Klebsiella pneumoniae MTCC 109 assessed as growth inhibition by broth microdilution method. The class given is functional.
The subject of data set [2] is Mycobacterium tuberculosis. As to the kind of experiment: Antitubercular activity against Mycobacterium tuberculosis H37Rv MTCC 200 assessed as growth inhibition by L.J. MIC method. In kind it is functional.
A further data set has as its system Bacillus subtilis. As to the kind of experiment: Antimicrobial activity against Bacillus subtilis MTCC 441 assessed as growth inhibition by broth microdilution method. In kind it is functional.
Another data set deals with Candida albicans. Nature of the data set: Antimicrobial activity against Candida albicans MTCC 227 assessed as growth inhibition by broth microdilution method. In kind it is functional.
For data set [3], the system named is Mycobacterium tuberculosis. As to the kind of experiment: Antitubercular activity against Mycobacterium tuberculosis H37Rv MTCC 200 assessed as growth inhibition by BACTEC MGIT method. In kind it is functional.
A further data set has as its system Aspergillus clavatus. Nature of the data set: Antimicrobial activity against Aspergillus clavatus MTCC 1323 assessed as growth inhibition by broth microdilution method. In kind it is functional.
A further data set deals with Aspergillus niger. Nature of the data set: Antimicrobial activity against Aspergillus niger MTCC 282 assessed as growth inhibition by broth microdilution method. In kind it is functional.
The subject of a further data set is Vero. As to the kind of experiment: Cytotoxicity against Chlorocebus aethiops (African green monkey) Vero cells assessed as inhibition of cell viability at equal to and greater than MIC for Mycobacterium tuberculosis H37Rv after 72 hr by MTT assay. The class given is cell-based. To be noted: chlorocebus sabaeus. A general note: Tetrazolium assays rely on reduction of a dye to a coloured formazan, in cell work by metabolically active cells.

The next data set has as its system Escherichia coli. As to the kind of experiment: Antimicrobial activity against Escherichia coli MTCC 443 assessed as growth inhibition by broth microdilution method. The class given is functional.
Data set [4] deals with Mycobacterium tuberculosis. As to the kind of experiment: Antitubercular activity against Mycobacterium tuberculosis H37Rv MTCC 200 assessed as growth inhibition at MIC by L.J. MIC method. In kind it is functional.

Converted amounts (≈) assume the structure as drawn.

`O=C1C(=O)N(CCSC(=S)N2CCN(c3ccc(Cl)c(Cl)c3)CC2)c2ccccc21`: the MIC99 with Streptococcus pyogenes is 100 µg/mL; in the data set with Staphylococcus aureus, 250 µg/mL; in the data set with Pseudomonas aeruginosa it was 100 µg/mL; in the data set on Klebsiella pneumoniae, 500 µg/mL; in the data set with Bacillus subtilis, 200 µg/mL; with Candida albicans, over 1000 µg/mL. Further, the MIC99 in the data set on Aspergillus clavatus, in the data set with Aspergillus niger and in the data set on Escherichia coli was 500 µg/mL each time. Further, the MIC in the data set with Plasmodium falciparum was 0.25 µg/mL (≈ 0.52 µM); in data set [2], 250 µg/mL (≈ 520 µM); in [3] it was over 6.25 µg/mL. For the same compound, in [1], the inhibition at 6.25 µg/mL came to 92%. The Activity entry with Vero is “Non-toxic”. Moreover, the “inhibition (Growth inhibition)” value in [4] is listed as 87%.
On to `O=C1C(=O)N(CCCSC(=S)N2CCN(c3ccc(Cl)c(Cl)c3)CC2)c2ccc(F)cc21`, for which the MIC99 was determined as 250 µg/mL in the data set with Streptococcus pyogenes; 500 µg/mL in the data set with Staphylococcus aureus; 250 µg/mL with Pseudomonas aeruginosa; 100 µg/mL with Klebsiella pneumoniae; 500 µg/mL in the data set with Bacillus subtilis; 500 µg/mL with Candida albicans. For the same compound, the MIC99 with Aspergillus clavatus came out at 250 µg/mL; with Aspergillus niger, 200 µg/mL; in the data set with Escherichia coli it was 250 µg/mL. Also, the MIC turned out to be 0.092 µg/mL (≈ 0.18 µM) in the data set with Plasmodium falciparum, 6.25 µg/mL (≈ 12.2 µM) in [2] and 6.25 µg/mL (≈ 12.2 µM) in data set [3]. The inhibition at 6.25 µg/mL in [1] was 99%. The Activity entry in the data set with Vero was “Non-toxic”. The “inhibition (Growth inhibition)” value in data set [4] came out at 98%.
Regarding `O=C1C(=O)N(CCSC(=S)N2CCN(c3ccc(Cl)c(Cl)c3)CC2)c2ccc(F)cc21`, the MIC99 with Streptococcus pyogenes turned out to be 62.5 µg/mL; in the data set with Staphylococcus aureus, 100 µg/mL; in the data set on Pseudomonas aeruginosa, 100 µg/mL; with Klebsiella pneumoniae, 62.5 µg/mL; in the data set with Bacillus subtilis, 200 µg/mL; in the data set with Candida albicans, 100 µg/mL. Besides, the values for the MIC99 in the data set with Aspergillus clavatus, with Aspergillus niger and in the data set on Escherichia coli were 100 µg/mL, 100 µg/mL and 62.5 µg/mL, respectively. For the same compound, the MIC amounted to 0.043 µg/mL (≈ 0.0863 µM) in the data set on Plasmodium falciparum, 3.1 µg/mL (≈ 6.22 µM) in data set [2] and 6.25 µg/mL (≈ 12.5 µM) in data set [3]. Also, the inhibition at 6.25 µg/mL in data set [1] is 99%. Further, in the data set on Vero, the Activity entry is recorded as “Non-toxic”. Further, the “inhibition (Growth inhibition)” value in data set [4] was determined as 99%.
Turning to `O=C1C(=O)N(CCCSC(=S)N2CCN(c3ccc(Cl)c(Cl)c3)CC2)c2ccc([N+](=O)[O-])cc21`, the MIC99 amounted to 250 µg/mL in the data set with Streptococcus pyogenes; 500 µg/mL with Staphylococcus aureus; 200 µg/mL in the data set on Pseudomonas aeruginosa; 100 µg/mL in the data set on Klebsiella pneumoniae; 250 µg/mL with Bacillus subtilis; 500 µg/mL in the data set on Candida albicans. Moreover, the MIC99 with Aspergillus clavatus came to 200 µg/mL; with Aspergillus niger, 250 µg/mL; in the data set on Escherichia coli it was 100 µg/mL. Also, the MIC with Plasmodium falciparum came to 0.5 µg/mL (≈ 0.927 µM); in data set [2], 100 µg/mL (≈ 185 µM); in [3] it was 6.25 µg/mL (≈ 11.6 µM). Further, the inhibition at 6.25 µg/mL in data set [1] is 99%. The Activity result with Vero was “Non-toxic”. Also, in [4], the “inhibition (Growth inhibition)” value is listed as 96%.

The term MIC99 denotes the lowest concentration that inhibits either 99% of growth or 99% of the strains tested, depending on the study. As usually defined, the MIC is the least concentration at which growth counts as inhibited. What is called inhibition is the change of the read-out against control, counted positive when it falls.
